Measurements taken from patent US6737383B1, “Herbicidal oxadiazolidines” (priority 1999, dated 2004).

Legend:
surinam grass = experiment: Test B pre/postemergence surinam grass; format: in vivo, Brachiaria decumbens
Method in brief: (§1)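 Response is a visual 0-to-10 score relative to untreated plants, where 0 means no effect and 10 means complete control, taken twelve to sixteen days after application. Treatments went onto soil at planting and onto foliage of 1- to 4-leaf plants, using a surfactant-containing non-phytotoxic solvent.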

giant foxtail = experiment: Test B pre/postemergence giant foxtail; format: in vivo, Setaria faberii
Method in brief: as §1

pigweed = experiment: Test B pre/postemergence pigweed; format: in vivo, Amaranthus retroflexus
Method in brief: as §1

velvetleaf = experiment: Test B pre/postemergence velvetleaf; format: in vivo, Abutilon theophrasti
Method in brief: as §1

blackgrass = experiment: Test B pre/postemergence blackgrass; format: in vivo, Alopecurus myosuroides
Method in brief: as §1

rape = experiment: Test B pre/postemergence rape; format: in vivo, Brassica napus
Method in brief: as §1

morningglory = experiment: Test B pre/postemergence morningglory; format: in vivo, Ipomoea hederacea
Method in brief: as §1

wild oat = experiment: Test B pre/postemergence wild oat; format: in vivo, Avena fatua
Method in brief: as §1

bamyardgrass = experiment: Test B flood test barnyardgrass; format: in vivo, Echinochloa crus-galli
Method in brief: (§2)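 Each value is a visual injury score relative to controls, with 10 meaning complete control and 0 no effect. Evaluation took place twelve to sixteen days after the 2-leaf-stage plants were treated and kept in the greenhouse.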

purple nutsedge = experiment: Test B pre/postemergence purple nutsedge; format: in vivo, Cyperus rotundus
Method in brief: as §1

sugar beet = experiment: Test B pre/postemergence sugar beet; format: in vivo, Beta vulgaris
Method in brief: as §1

soybean = experiment: Test B pre/postemergence soybean; format: in vivo, Glycine max
Method in brief: as §1

corn = experiment: Test B pre/postemergence corn; format: in vivo, Zea mays
Method in brief: as §1

crabgrass = experiment: Test B pre/postemergence crabgrass; format: in vivo, Digitaria sanguinalis
Method in brief: as §1

cocklebur = experiment: Test B pre/postemergence cocklebur; format: in vivo, Xanthium strumarium
Method in brief: as §1

smallflower flatsedge = experiment: Test B flood test smallflower flatsedge; format: in vivo, Cyperus difformis
Method in brief: as §2

[1] = Postemergence, Rate 62 g/ha, scale 0 to 10, 0 is no effect, 10 is complete control
[2] = Postemergence, Rate 125 g/ha, scale of 0 to 10 where 0 is no effect and 10 is complete control
[3] = Postemergence, Rate 250 g/ha, scale of 0 to 10, 0 is no effect, 10 is complete control
[4] = Preemergence, Rate 62 g/ha, scale of 0 to 10 where 0 is no effect and 10 is complete control
[5] = Preemergence, Rate 125 g/ha, scale of 0 to 10 where 0 is no effect and 10 is complete control
[6] = Preemergence, Rate 250 g/ha, scale 0 to 10 (0 no effect, 10 complete control)
[7] = Preemergence, Rate 500 g/ha, scale of 0 to 10 where 0 is no effect and 10 is complete control
[8] = Rate 500 g/ha, Postemergence, scale 0 to 10, 0 is no effect, 10 is complete control
[9] = Rate 62 g/ha, flood test species, Pre-emergence, visual evaluation after twelve to sixteen days
[10] = Rate 125 g/ha, under heading Pre-emergence, flood test species, visual evaluation after twelve to sixteen days
[11] = Rate 250 g/ha, Pre-emergence (flood test species), scale 0 to 10, 0 is no effect, 10 is complete control
[12] = Rate 500 g/ha, Pre-emergence section of Table B, 0 to 10 scale (0 no effect, 10 complete control)

CC(C)N(C(=O)n1oc(=O)n(CCF)c1=O)c1ccc(Cl)cc1 [Compound 668]
Plant response rating, B. signalgrass (surinam grass; [1]): 1 | Plant response rating, B. signalgrass (surinam grass; [2]): 2 | B. signalgrass plant response rating (surinam grass; [3]): 4 | B. signalgrass plant response rating (surinam grass; [4]): 5 | B. signalgrass plant response rating (surinam grass; [5]): 8 | Plant response rating, B. signalgrass (surinam grass; [6]): 8 | Plant response rating, B. signalgrass (surinam grass; [7]): 9 | B. signalgrass plant response rating (surinam grass; [8]): 5 | Plant response rating, Giant foxtail (giant foxtail; [1]): 8 | Giant foxtail plant response rating (giant foxtail; [2]): 9 | Giant foxtail plant response rating (giant foxtail; [3]): 9 | Giant foxtail plant response rating (giant foxtail; [4]): 9 | Giant foxtail plant response rating (giant foxtail; [5]): 9 | Plant response rating, Giant foxtail (giant foxtail; [6]): 9 | Plant response rating, Giant foxtail (giant foxtail; [7]): 10 | Giant foxtail plant response rating (giant foxtail; [8]): 9 | Plant response rating, Redroot pigweed (pigweed; [1]): 3 | Redroot pigweed plant response rating (pigweed; [2]): 5 | Redroot pigweed plant response rating (pigweed; [4]): 0 | Redroot pigweed plant response rating (pigweed; [5]): 7 | Plant response rating, Redroot pigweed (pigweed; [6]): 10 | Plant response rating, Redroot pigweed (pigweed; [7]): 10 | Redroot pigweed plant response rating (pigweed; [8]): 7 | Plant response rating, Velvetleaf (velvetleaf; [1]): 0 | Velvetleaf plant response rating (velvetleaf; [2]): 0 | Velvetleaf plant response rating (velvetleaf; [4]): 3 | Velvetleaf plant response rating (velvetleaf; [5]): 6 | Plant response rating, Velvetleaf (velvetleaf; [6]): 7 | Plant response rating, Velvetleaf (velvetleaf; [7]): 8 | Velvetleaf plant response rating (velvetleaf; [8]): 7 | Plant response rating, Blackgrass (blackgrass; [1]): 7 | Blackgrass plant response rating (blackgrass; [2]): 8 | Blackgrass plant response rating (blackgrass; [3]): 8 | Blackgrass plant response rating (blackgrass; [4]): 6 | Blackgrass plant response rating (blackgrass; [5]): 8 | Plant response rating, Blackgrass (blackgrass; [6]): 10 | Plant response rating, Blackgrass (blackgrass; [7]): 10 | Blackgrass plant response rating (blackgrass; [8]): 9 | Plant response rating, Rape (rape; [1]): 2 | Rape plant response rating (rape; [2]): 3 | Rape plant response rating (rape; [4]): 0 | Rape plant response rating (rape; [5]): 5 | Plant response rating, Rape (rape; [6]): 8 | Plant response rating, Rape (rape; [7]): 9 | Rape plant response rating (rape; [8]): 4 | Plant response rating, Morningglory (morningglory; [1]): 1 | Morningglory plant response rating (morningglory; [2]): 3 | Morningglory plant response rating (morningglory; [3]): 4 | Morningglory plant response rating (morningglory; [4]): 0 | Morningglory plant response rating (morningglory; [5]): 0 | Plant response rating, Morningglory (morningglory; [6]): 0 | Plant response rating, Morningglory (morningglory; [7]): 5 | Morningglory plant response rating (morningglory; [8]): 4 | Plant response rating, Wild oats (wild oat; [1]): 0 | Wild oats plant response rating (wild oat; [2]): 0 | Wild oats plant response rating (wild oat; [4]): 2 | Wild oats plant response rating (wild oat; [5]): 7 | Plant response rating, Wild oats (wild oat; [6]): 8 | Plant response rating, Wild oats (wild oat; [7]): 9 | Wild oats plant response rating (wild oat; [8]): 0 | Plant response rating, Barnyardgrass (0 to 10 scale, 0 is no effect, 10 is complete control) (bamyardgrass; [9]): 0 | Barnyardgrass plant response rating (0 to 10 scale, 0 is no effect, 10 is complete control) (bamyardgrass; [10]): 0 | Barnyardgrass plant response rating (bamyardgrass; [11]): 0 | Barnyardgrass plant response rating (bamyardgrass; [12]): 0 | Plant response rating, Nutsedge (purple nutsedge; [1]): 0 | Nutsedge plant response rating (purple nutsedge; [2]): 0 | Nutsedge plant response rating (purple nutsedge; [4]): 0 | Nutsedge plant response rating (purple nutsedge; [5]): 0 | Plant response rating, Nutsedge (purple nutsedge; [6]): 0 | Plant response rating, Nutsedge (purple nutsedge; [7]): 0 | Nutsedge plant response rating (purple nutsedge; [8]): 0 | Plant response rating, Sugarbeets (sugar beet; [1]): 0 | Sugarbeets plant response rating (sugar beet; [2]): 0 | Sugarbeets plant response rating (sugar beet; [4]): 0 | Sugarbeets plant response rating (sugar beet; [5]): 6 | Plant response rating, Sugarbeets (sugar beet; [6]): 6 | Plant response rating, Sugarbeets (sugar beet; [7]): 9 | Sugarbeets plant response rating (sugar beet; [8]): 6 | Plant response rating, Soybean (soybean; [1]): 2 | Soybean plant response rating (soybean; [2]): 2 | Soybean plant response rating (soybean; [4]): 0 | Soybean plant response rating (soybean; [5]): 1 | Plant response rating, Soybean (soybean; [6]): 1 | Plant response rating, Soybean (soybean; [7]): 6 | Soybean plant response rating (soybean; [8]): 6 | Plant response rating, Corn (corn; [1]): 0 | Corn plant response rating (corn; [2]): 0 | Corn plant response rating (corn; [3]): 3 | Corn plant response rating (corn; [4]): 0 | Plant response rating, Corn (corn; [6]): 4 | Plant response rating, Corn (corn; [7]): 9 | Corn plant response rating (corn; [8]): 3 | Plant response rating, Crabgrass (crabgrass; [1]): 6 | Crabgrass plant response rating (crabgrass; [2]): 9 | Crabgrass plant response rating (crabgrass; [3]): 9 | Crabgrass plant response rating (crabgrass; [4]): 8 | Crabgrass plant response rating (crabgrass; [5]): 8 | Plant response rating, Crabgrass (crabgrass; [6]): 8 | Plant response rating, Crabgrass (crabgrass; [7]): 8 | Crabgrass plant response rating (crabgrass; [8]): 10 | Plant response rating, Cocklebur (cocklebur; [1]): 0 | Cocklebur plant response rating (cocklebur; [2]): 0 | Cocklebur plant response rating (cocklebur; [3]): 2 | Cocklebur plant response rating (cocklebur; [4]): 0 | Cocklebur plant response rating (cocklebur; [5]): 0 | Plant response rating, Cocklebur (cocklebur; [6]): 0 | Plant response rating, Cocklebur (cocklebur; [7]): 0 | Cocklebur plant response rating (cocklebur; [8]): 2 | Plant response rating, S. Flatsedge (0 to 10 scale, 0 is no effect, 10 is complete control) (smallflower flatsedge; [9]): 0 | S. Flatsedge plant response rating (0 to 10 scale, 0 is no effect, 10 is complete control) (smallflower flatsedge; [10]): 0 | S. Flatsedge plant response rating (smallflower flatsedge; [11]): 0 | S. Flatsedge plant response rating (smallflower flatsedge; [12]): 0
